Test results: US20240350489A1, “LOU064 FOR TREATING MULTIPLE SCLEROSIS” (NOVARTIS AG, priority 2021, published 2024)
Entries after “also recorded” stand apart in the source; their conditions may differ. Where two headings read alike, the source gives them in different places.

What was measured:
HumanMOG-induced EAE = HumanMOG-induced EAE in C57BL/6 mouse, prophylactic b.i.d. dosing; format: in vivo
Text: There is no known naturally occurring MS-like disease in rodents or non-human primates. Following immunization of susceptible rodent strains with CNS-specific myelin proteins emulsified in complete Freund's adjuvant (CFA) an induced disease model develops. Experimental autoimmune encephalitis (EAE) mimics many of the pathological phenotypes of MS with focal, demyelinating lesions of the CNS white matter. In the C57BL/6 mouse there are two variants of myelin oligodendrocyte glycoprotein (MOG)-induced EAE depending on whether the human (HumanMOG) or rat (RatMOG) recombinant protein sequences are used (Lyons J.A. et al. (1999) European Journal of Immunology 29:3432-3439; Oliver A. R. et al. (2003) J Immunology 171: 462-468). Minor amino acid residue differences result in HumanMOG-induced EAE being exquisitely B-cell dependent as the APC, whilst RatMOG-induced EAE is B-cell independent and requires dendritic cells as the dominant APC population (Lyons et al 1999; Molnarfi N. et al. (2013) Journal of Experimental Medicine 210(13):2921-2937).
In HumanMOG-induced EAE the BTK inhibitor LOU064 was dosed twice daily (b.i.d.) at 3 mg/kg or 30 mg/kg at 12 hr intervals. Prophylactic dosing of LOU064 was initiated 6 hours prior to MOG/CFA immunization and continued until study end.
EAE was assessed using a scoring system, outlined in Table 1. Clinical scores and body weights were assessed daily throughout the experiment.
According to the animal regulations, humane endpoints for EAE mice were score 3 (>7 days), score 3.5 (>3 days), or immediately if score 4 was reached.
Using a short eight-day (pre-disease onset) EAE protocol, the immune priming mechanisms during the HumanMOG model were investigated.

[1] = Levels of LOU064 in mouse tissues (blood, brain, CSF); format: in vivo; conditions: for concentration at 1 h / concentration at 5 h / concentration at 8 h: C57BL/6, mouse, oral
Procedure: The compound levels in total brain homogenate are very low and mainly detectable at the early timepoint. Similarly, the levels in cerebrospinal fluid (CSF) are low.
Blood, brain and CSF levels of LOU064 after oral dosing of 3 and 30 mg/kg b.i.d. The LLOQ were 0.2 nM in blood, […] in brain homogenate and 0.5 nM in CSF. Shown are averages ±SD from 4 animals for the 1 h timepoints and from 3 animals for the 5 and 8 h timepoints. Where denoted with ^a, the values were derived from one animal of three that was above the LLOQ.

[2] = tested on: splenocytes and draining lymph node cells; test: Ex vivo MOG-induced recall proliferation, HumanMOG EAE; set-up: species or system mouse; conditions: dosed in vivo
Procedure: Prophylactic LOU064 (b.i.d.) treatment during HumanMOG EAE inhibits (auto)antigen recall proliferation. Isolated splenocytes and draining lymph node cells were incubated in vitro with HumanMOG for 48 hours. Antigen-specific proliferation was determined by [^3H]-thymidine incorporation. […] Group sizes n=5 per treatment.
Ex vivo MOG-induced recall proliferation responses were studied using isolated splenocytes and draining lymph node cells collected on day 8 post-immunization. […] In contrast, plate-bound anti-CD3/CD28 polyclonal stimulation of lymph node cells was unaffected by the in vivo treatment.

BTK [3] = target: T1, BTK (Mus musculus, UniProt P35991); test: Trough BTK occupancy in spleen, blood and brain, RatMOG EAE; format: in vivo; conditions: 30 mg/kg b.i.d., 16 h after the last dose
T1 construct: BTK occupancy was assessed in brain homogenates that had been prepared for compound exposure analysis; from tissue; host or cells: spleen, inguinal lymph nodes, blood and brain homogenate of C57BL/6 EAE mice

NF-L = NF-L concentration in serum, RatMOG EAE; format: in vivo, mouse; conditions: 30 mg/kg b.i.d., vs vehicle
Text: In immunized mice, vehicle or LOU064-treated, the mean NF-L level was markedly higher as compared to naive mice.

[4] = Passive permeability, canine P-gp knockout MDCK cell monolayers (MDCK-LE V2); format: in vitro ADME; conditions: dog, MDCK; 10 μM apical, two hours incubation
Procedure: (§1) Passive permeability measurement using canine P-gp knockout MDCK cell monolayers (MDCK-LE V2)
(§2) A cell-based assay was used to assess the passive permeability of drug candidates in the context of gastro-intestinal absorption. A MDCK cell line where the endogenous canine Mdr1 (cMdr1) gene encoding P-gp has been knocked out is grown to form monolayers on a 96-well Transwell plate. Compounds are loaded in cassettes of three at a concentration of 10 μM each to the apical compartment and following a period of two hours incubation the amount of compound appearing in the basal chamber is quantitated by tandem mass spectrometry.
(§3) In particular, a MDCK cell line was generated by knocking-out the endogenous canine Mdr1 (cMdr1) gene. A subclone of this cell line was used to relate passive permeability to the fraction absorbed in human intestine using a set of 37 commercial compounds for which the fraction absorbed was known. The assay is able to estimate the fraction absorbed in human based on the Papp measured in the assay.
(§4) Samples were subject to RapidFire/MS/MS analysis and LC/MS/MS analysis. […]

[5] = tested on: canine P-gp knockout MDCK cell monolayers (MDCK-LE V2); test: as above; format: in vitro ADME; conditions: MDCK trans-well assay
Procedure: as §1, §2, §3, §4

BTK [6] = target: T2, BTK (Rattus norvegicus, UniProt Q5S255); conditions: female rats, single oral dose of 3 mg/kg; cited from earlier work
T2 construct: from tissue; host or cells: blood and spleen of female rats
T2 sequence (Q5S255 1-660): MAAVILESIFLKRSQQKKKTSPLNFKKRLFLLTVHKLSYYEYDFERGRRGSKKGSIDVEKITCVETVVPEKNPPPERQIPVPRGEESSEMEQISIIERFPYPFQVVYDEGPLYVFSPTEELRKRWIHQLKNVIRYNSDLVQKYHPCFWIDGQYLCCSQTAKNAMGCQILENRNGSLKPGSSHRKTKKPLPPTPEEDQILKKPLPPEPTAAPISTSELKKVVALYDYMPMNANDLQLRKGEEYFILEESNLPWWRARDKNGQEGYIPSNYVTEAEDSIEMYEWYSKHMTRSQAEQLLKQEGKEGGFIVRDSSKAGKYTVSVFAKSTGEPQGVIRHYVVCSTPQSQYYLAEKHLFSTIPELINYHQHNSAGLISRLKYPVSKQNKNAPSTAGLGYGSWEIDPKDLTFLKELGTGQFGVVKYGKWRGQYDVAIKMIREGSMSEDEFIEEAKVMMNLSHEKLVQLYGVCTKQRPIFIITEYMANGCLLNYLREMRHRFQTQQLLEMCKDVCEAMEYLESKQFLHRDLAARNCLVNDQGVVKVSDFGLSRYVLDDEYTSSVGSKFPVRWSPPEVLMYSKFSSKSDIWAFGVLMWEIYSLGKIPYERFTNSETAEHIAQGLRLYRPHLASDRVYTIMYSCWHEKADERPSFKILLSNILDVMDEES

T1 sequence (P35991 whole entry): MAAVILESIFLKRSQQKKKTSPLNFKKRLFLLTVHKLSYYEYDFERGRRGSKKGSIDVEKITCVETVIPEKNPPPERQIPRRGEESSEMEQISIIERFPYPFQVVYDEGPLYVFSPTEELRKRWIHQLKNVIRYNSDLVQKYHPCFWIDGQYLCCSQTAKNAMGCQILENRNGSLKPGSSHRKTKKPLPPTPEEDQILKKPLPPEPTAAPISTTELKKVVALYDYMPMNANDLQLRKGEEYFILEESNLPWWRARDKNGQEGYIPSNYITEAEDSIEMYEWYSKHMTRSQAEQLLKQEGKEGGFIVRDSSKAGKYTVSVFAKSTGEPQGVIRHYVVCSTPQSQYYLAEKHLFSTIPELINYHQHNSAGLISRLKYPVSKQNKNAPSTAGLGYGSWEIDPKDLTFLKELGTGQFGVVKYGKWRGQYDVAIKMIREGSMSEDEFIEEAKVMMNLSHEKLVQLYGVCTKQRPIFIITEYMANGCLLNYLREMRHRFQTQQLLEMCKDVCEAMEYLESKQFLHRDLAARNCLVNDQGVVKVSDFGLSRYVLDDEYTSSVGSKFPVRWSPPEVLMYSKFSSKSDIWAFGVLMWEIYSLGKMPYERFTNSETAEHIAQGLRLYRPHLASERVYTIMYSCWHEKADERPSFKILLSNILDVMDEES

C=CC(=O)N(C)CCOc1c(N)ncnc1-c1cc(F)cc(NC(=O)c2ccc(C3CC3)cc2F)c1C [LOU064, N-(3-(6-amino-5-(2-(N-methylacrylamido)ethoxy)pyrimidin-4-yl)-5-fluoro-2-methylphenyl)-4-cyclopropyl-2-fluorobenzamide]
neurologic symptoms and EAE-induced weight loss (HumanMOG-induced EAE; 3 mg/kg b.i.d.): only a fairly weak reduction | cumulative disease burden (HumanMOG-induced EAE; 30 mg/kg b.i.d.): significantly reduced | disease incidence / frequency of EAE onset (HumanMOG-induced EAE; 30 mg/kg b.i.d.): reduction in the frequency of EAE onset; also recorded: significantly reduced disease incidence | peak EAE score (HumanMOG-induced EAE; 30 mg/kg b.i.d.): significantly reduced | EAE clinical symptoms / EAE scores (HumanMOG-induced EAE; 30 mg/kg p.o. b.i.d.): improvement in EAE scores; also recorded: significantly reduced clinical symptoms of EAE; also recorded: highly effective at inhibiting HumanMOG-induced EAE induction; also recorded: strongly reduced neurologic symptoms | inflammation-induced cachexia / daily body weight change (HumanMOG-induced EAE; 30 mg/kg p.o. b.i.d.): significantly improved; also recorded: inhibited inflammation-induced cachexia; also recorded: strongly reduced | tolerability (HumanMOG-induced EAE; 3 and 30 mg/kg p.o. b.i.d.): well tolerated in all animals | adverse events (HumanMOG-induced EAE; mouse, in vivo): no adverse events were observed with either dose group | weight gain in immunized mice (inflammation-induced cachexia) (HumanMOG-induced EAE; short eight-day pre-EAE protocol, 30 mg/kg twice daily): improved weight gain | Levels of LOU064, Brain ([1]; 3 mg/kg p.o. b.i.d., 1 h): 2.3 ± 2.2 pmol/g | Levels of LOU064, Brain ([1]; 3 mg/kg p.o. b.i.d., 5 h): <0.5 pmol/g | Levels of LOU064, Brain ([1]; 3 mg/kg p.o. b.i.d., 8 h): <0.5 pmol/g | Levels of LOU064, Brain ([1]; 30 mg/kg p.o. b.i.d., 1 h): 13.5 ± 6.0 pmol/g | Levels of LOU064, CSF ([1]; 30 mg/kg p.o. b.i.d., 1 h): 8.4 ± 3.1 nM | Levels of LOU064, Brain ([1]; 30 mg/kg p.o. b.i.d., 5 h): 0.7 ± 0.02 pmol/g | Levels of LOU064, Brain ([1]; 30 mg/kg p.o. b.i.d., 8 h): <0.5 pmol/g | concentration at 1 h ([1]; CSF, 3 mg/kg p.o. b.i.d., 1 h, read-out: Levels of LOU064, CSF): 3 ± 3.3 nM | concentration at 5 h ([1]; CSF, 3 mg/kg p.o. b.i.d., 5 h, one animal of three above LLOQ, read-out: Levels of LOU064, CSF): 0.5 nM | concentration at 8 h ([1]; CSF, 3 mg/kg p.o. b.i.d., 8 h, read-out: Levels of LOU064, CSF): < 0.5 nM | concentration at 5 h ([1]; CSF, 30 mg/kg p.o. b.i.d., 5 h, one animal of three above LLOQ, read-out: Levels of LOU064, CSF): 0.5 nM | concentration at 8 h ([1]; CSF, 30 mg/kg p.o. b.i.d., 8 h, read-out: Levels of LOU064, CSF): < 0.5 nM | concentration at 1 h ([1]; whole blood, 3 mg/kg p.o. b.i.d., 1 h, read-out: Levels of LOU064, Blood): 28.2 ± 11.7 nM | concentration at 5 h ([1]; whole blood, 3 mg/kg p.o. b.i.d., 5 h, read-out: Levels of LOU064, Blood): 0.4 ± 0.04 nM | concentration at 8 h ([1]; whole blood, 3 mg/kg p.o. b.i.d., 8 h, read-out: Levels of LOU064, Blood): 0.2 ± 0.07 nM | concentration at 1 h ([1]; whole blood, 30 mg/kg p.o. b.i.d., 1 h, read-out: Levels of LOU064, Blood): 371 ± 149 nM | concentration at 5 h ([1]; whole blood, 30 mg/kg p.o. b.i.d., 5 h, read-out: Levels of LOU064, Blood): 19.4 ± 9.9 nM | concentration at 8 h ([1]; whole blood, 30 mg/kg p.o. b.i.d., 8 h, read-out: Levels of LOU064, Blood): 3.4 ± 2.3 nM | MOG-specific proliferation ([3H]-thymidine incorporation) ([2]; cells incubated with HumanMOG 48 hours): dose-dependent reduction in MOG-specific proliferation | polyclonal stimulation with anti-CD3/CD28 ([2]; lymph node cells): unchanged | BTK occupancy in brain (BTK [3]): intermediate levels; also recorded: only partial BTK occupancy in the brain | BTK occupancy in spleen and blood (BTK [3]): in a range indicative of maximal BTK occupancy; also recorded: full BTK occupancy in blood and spleen | mean serum NF-L level (NF-L): non-significant trend towards a lower mean NF-L level; also recorded: slightly reduced | Papp A→B at 2 h, 10 μM [4]: 37.3 ×10⁻⁶ cm/s | recovery [5]: high recovery | BTK occupancy in blood and spleen (BTK [6]): full BTK occupancy
